Experimental data: patent US20050142626A1, “Diagnostic methods for asthma” (priority 1999, published 2005)

Columns and labels:
[1] = Chemical stability of L-tyrosine oxidation products (Peaks I and II) of the EPO-H2O2-Br- system; conditions: to acid, peroxide, reductants and nucleophilic compounds; prolonged incubation at 37° C. with H2O2
[2] = test system: eosinophil peroxidase-H2O2—Br− system; test: 3-Bromotyrosine formation in BSA incubated with activated phagocytes (eosinophils); type: cell-based; conditions: BSA with phorbol ester activated cells, plasma levels of bromide
Experimental: Reactions were initiated by addition of oxidant (H2O2, HOBr, N-bromo or N,N-dibromo amine) and performed in sodium phosphate buffer (pH 7.0) at 37° C. for 60 min. Proteins oxidized in vitro were prepared for analysis by first precipitating and desalting them in a single-phase extraction mixture comprised of H2O:methanol:H2O-saturated diethyl ether (1:3:7, v:v:v) as described in Hazen, S. L., Hsu, F. F., Gaut, J. P., Crowler, J. R. and Heinecke, J. W. “Modification of Proteins and Lipids by Myeloperoxidase-Derived Oxidants” In: Methods of Enzymology, Edited by Lester Packer, Vol. 300, pp. 88-106. Academic Press, Inc., San Diego. 1999, followed by acid hydrolysis in methane sulfonic acid. […]
L-Tyrosine, 3-bromotyrosine and 3,5-dibromotyrosine generated by phagocytes and human tissues were quantified by stable isotope dilution GC/MS in the negative-ion chemical ionization mode. n-Propyl, per heptafluorobutyryl (HFB) derivatives of amino acids were prepared by standard methods and analyzed on a Perkin Elmer TurboMass mass spectrometer equipped with chemical ionization probe. […] 3-Bromotyrosine was monitored as its n-propyl per HFB derivative using two structurally informative fragment ions, m/z 573 (M-HF)^− and m/z 445 (M-CF3CF2CHO)^− and their corresponding isotopically labeled [^13C6] internal standard ions at m/z 579 and 451, respectively. […]

eosinophil peroxidase = test: Ring-bromination of L-tyrosine by isolated EPO at physiological levels of halides; type: biochemical; conditions: molar excess in reaction mixtures
Experimental: Reactions were initiated by addition of oxidant (H2O2, HOBr, N-bromo or N,N-dibromo amine) and performed in sodium phosphate buffer (pH 7.0) at 37° C. for 60 min. Proteins oxidized in vitro were prepared for analysis by first precipitating and desalting them in a single-phase extraction mixture comprised of H2O:methanol:H2O-saturated diethyl ether (1:3:7, v:v:v) as described in Hazen, S. L., Hsu, F. F., Gaut, J. P., Crowler, J. R. and Heinecke, J. W. “Modification of Proteins and Lipids by Myeloperoxidase-Derived Oxidants” In: Methods of Enzymology, Edited by Lester Packer, Vol. 300, pp. 88-106. Academic Press, Inc., San Diego. 1999, followed by acid hydrolysis in methane sulfonic acid.
Quantitative determination of 3-bromotyrosine and 3,5-dibromotyrosine production from free L-tyrosine was performed utilizing reverse-phase HPLC with a C18 column (Beckman Ultrasphere, 5 μm resin, 4.6×250 mm) equilibrated with solvent A (0.1% trifluoroacetic acid, pH 2.5). […] 3-Bromotyrosine and 3,5-dibromotyrosine were monitored on a diode array detector and quantified at 280 nm employing a standard curve constructed with authentic synthetic standards.
The ability of isolated EPO and MPO to form 3-bromotyrosine and 3,5-dibromotyrosine in the presence of physiological levels of halides was evaluated. […]

Compound	effect on 3-bromotyrosine production [2]	further results
N[C@@H](Cc1cc(Br)c(O)c(Br)c1)C(=O)O (single isomer, unassigned) [3,5-dibromotyrosine]		chemical stability of the product [1]: stable
[N-]=[N+]=[N-].[Na+] [NaN3]	inhibited	
NCCS(=O)(=O)O [taurine]		effect on ring-bromination by EPO (eosinophil peroxidase): augmented
catalase	inhibited	
